Experimental findings from article PMC12799362, “The effect of dimeric bisbenzimidazoles on the activity of DNA repair enzymes TDP1, TDP2, PARP1 and PARP2” (Vavilov Journal of Genetics and Breeding, 2025) are described below.

As a reminder, the IC50 is the concentration at which inhibition is half-maximal.

Test [1] addresses T1, tyrosyl-DNA phosphodiesterase 1 (TDP1) (Homo sapiens, UniProt Q9NUW8).
T1 construct: made in house; host or cells: E. coli
The test can be described thus: Real-time fluorescent detection of TDP1 activity (BHQ1 cleavage from 3′-end of single-stranded FAM oligonucleotide). It counts as biochemical. The note with it: recombinant TDP1 1.5 nM, 50 nM single-stranded oligonucleotide, 26 °C; mean ± SD, at least three replicates. How it is done:
(§1) Recombinant human proteins tyrosyl-DNA phosphodiesterase 1 (TDP1) and tyrosyl-DNA phosphodiesterase 2 (TDP2) were expressed in the E. coli system, poly(ADP-ribose) polymerase 1 (PARP1) and poly(ADP-ribose) polymerase 2 (PARP2) were expressed in insect cells using a baculovirus expression system and purified as described in (Sukhanova et al., 2004; Sherstyuk et al., 2019; Dyrkheeva et al., 2020, 2021).
Determination of TDP1 activity. The reaction mixture (200 μl) for real-time fluorescent detection of TDP1 enzyme activity (Zakharenko et al., 2015) contained TDP1 reaction buffer (50 mM Tris-HCl, pH 8.0, 50 mM NaCl, and 7 mM β-mercaptoethanol), 50 nM oligonucleotide 5′-FAM-AAC GTC AGG GTC TTC C-BHQ1-3′, the test compound at various concentrations, and TDP1 at a final concentration of 1.5 nM. The reaction mixtures were incubated at a constant temperature of 26 °C in a POLARstar OPTIMA microplate fluorometer (BMG LABTECH, GmbH, Ortenberg, Germany). Fluorescence intensity (Ex485/Em520 nm) was measured every minute for 10 min. Mean values of half-maximal inhibitory concentration (IC50 – the concentration of the compound that inhibited 50 % of enzyme activity compared to the untreated control well containing only enzyme and substrate) were determined using a dose-response curve of the fluorescence signal level versus inhibitor concentration and calculated using MARS Data Analysis 2.0 (BMG LABTECH). Kinetic curves were obtained in at least three independent experiments and statistically processed in OriginPro 8.6.0 (OriginLab, Northampton, Massachusetts, USA).
The third group of compounds includes derivatives of the monomeric compound MB2Py(Ac), which is an isosteric analog of MB3, due to the fact that the pyrrolecarboxamide fragment contained in its structure can act as a hydrogen atom donor at the carboxamide nitrogen for hydrogen bond formation, in a position analogous to benzimidazole. Dimeric derivatives are represented by the DB2Py(n) series containing n-alkyldicarboxylic acids as a linker. This series is represented by a set of compounds containing 1, 3, 4, 5, 7, 9, and 11 methylene units, which allowed for a more accurate assessment of the dependence of the inhibitory activity of compounds on spacer length. The DB2Py(n) series differs from the DB3(n) series by the presence, in addition to the bisbenzimidazole structure, of a pyrrolecarboxamide structure, which is a fragment of the AT-specific antibiotic netropsin.Using the real-time fluorescence analysis method, halfmaximal inhibitory concentration (IC50) values of the studied compounds (see the Table) were obtained in the reaction of BHQ1 cleavage from the 3′-end of the oligonucleotide by TDP1, which led to an increase in FAM fluorescence at the 5′-end of the chain (Zakharenko et al., 2015). It should also be noted that a single-stranded oligonucleotide was used as substrate to exclude the binding of dimeric bisbenzimidazoles as minor-groove ligands to the DNA substrate and direct their action toward the enzymatic target.

In test [2] the test system is poly(ADP-ribose) polymerase 2 (PARP2). The experiment in a line: PARP2 auto-poly(ADP-ribosyl)ation with [32P]-NAD+. The settings on record: compound 500 μM, PARP2 600 nM, 0.6 mM [32P]-NAD+, 5 min, 37 °C; mean ± SD. It counts as biochemical, human.
Text: as §1
(§2) Determination of PARP1 and PARP2 activity. For determination of PARP1 and PARP2 enzyme activity in the presence and absence of test compounds, radiolabeled [32P]-NAD⁺ was synthesized from α-[32P]-ATP according to the protocol (Sherstyuk et al., 2019). The auto-poly(ADPribosyl) ation reaction was performed in buffer for PARP1: 50 mM Tris-HCl, pH 8.0, 10 mM MgCl2, 150 mM NaCl, and 7 mM β-mercaptoethanol, as well as 2 A260 units/ml activated DNA, 0.3 mM [32P]-NAD⁺ at 37 °C. The reaction was initiated by addition of PARP1 to 200 nM and carried out for 2 min
(§3) The buffer for PARP2 contained: 50 mM Tris-HCl, pH 8.0, 3 mM spermine, 150 mM NaCl, and 7 mM β-mercaptoethanol, 2 A260 units/ml activated DNA, 0.6 mM [32P]-NAD⁺ at 37 °C. The reaction was initiated by addition of PARP2 to 600 nM, and the reaction mixtures were incubated for 5 min. The reaction was stopped by placing 5 μl aliquots on Whatman 1 paper filters impregnated with 5 % trichloroacetic acid (TCA). The filters were washed with 5 % TCA four times and air-dried after removal of TCA with 90 % ethanol. The incorporation of the radioactive label into the reaction product was calculated using a Typhoon FLA 9500 scanner (GE Healthcare, Chicago, Illinois, USA). At least three independent experiments were performed.

The target in test [3] is T2, tyrosyl-DNA phosphodiesterase 2 (TDP2) (Homo sapiens, UniProt O95551).
T2 construct: made in house; host or cells: E. coli
T2 sequence (O95551 1-362): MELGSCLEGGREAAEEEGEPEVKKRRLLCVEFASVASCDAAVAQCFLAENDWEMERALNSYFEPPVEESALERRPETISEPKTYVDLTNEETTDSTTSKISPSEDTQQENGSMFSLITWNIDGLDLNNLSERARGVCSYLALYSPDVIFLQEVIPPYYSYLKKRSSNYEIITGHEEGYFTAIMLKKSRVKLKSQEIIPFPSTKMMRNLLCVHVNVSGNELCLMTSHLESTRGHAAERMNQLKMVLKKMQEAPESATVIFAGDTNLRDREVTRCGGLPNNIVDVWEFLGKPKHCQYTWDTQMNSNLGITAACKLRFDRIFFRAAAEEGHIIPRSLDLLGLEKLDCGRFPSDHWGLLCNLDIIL
The experiment in a line: TDP2 activity, removal of 5′-tyrosine from oligonucleotide substrate, denaturing PAGE. The class given is biochemical. The settings on record: inhibitor 500 μM, TDP2 200 nM, substrate 100 nM, 10 min, 37 °C; mean ± SD; read-out: TDP2 % of residual activity (500 μM).
Text: as §1
Determination of TDP2 activity. For determination of TDP2 enzyme activity, an oligonucleotide 5′-tyrosine-AAC GTC AGG GTC TTC C-FAM-3′ containing a 6-FAM label at the 3′-end and an L-tyrosine residue attached via the phenolic OH group to the 5′-terminal phosphate was used as substrate, synthesized at the Russian-French-Japanese Laboratory of Bionanotechnology of Novosibirsk State University as described in (Dyrkheeva et al., 2021). The substrate at a concentration of 100 nM was incubated with TDP2 at a concentration of 200 nM in the absence or presence of inhibitor (500 μM) for 10 min at 37 °C in buffer containing 50 mM Tris-HCl, pH 8.0, 50 mM NaCl, 7 mM β-mercaptoethanol (Dyrkheeva et al., 2021). The reaction was stopped by addition of PAGE loading buffer (TBE, 10 % formamide, 7 M urea, 20 mM EDTA, 0.1 % xylene cyanol, and 0.1 % bromophenol blue). The samples were then heated at 90 °C for 5 min. The enzymatic reaction products were separated by electrophoresis in 20 % denaturing PAGE with 7 M urea at an acrylamide to bisacrylamide ratio of 19:1. A high-resolution Typhoon FLA 9500 laser scanner (GE Healthcare, Chicago, Illinois, USA) was used for gel scanning and visualization, and the data were analyzed using QuantityOne 4.6.7 software (Bio- Rad Laboratories, Inc., Hercules, California, USA). At least three independent experiments were performed, and statistical processing was carried out using OriginPro 8.6.0 (OriginLab, Northampton, Massachusetts, USA).
To study the effect of the studied compounds on TDP2 activity, we tested the ability of this enzyme to remove the tyrosine residue from the 5′-end of the oligonucleotide substrate in the absence and presence of inhibitors, as described in (Dyrkheeva et al., 2021).

The target of test [4] is T3, poly(ADP-ribose) polymerase 1 (PARP1) (Homo sapiens, UniProt P09874).
T3 construct: made in house; host or cells: insect cells (baculovirus expression system)
The test can be described thus: PARP1 auto-poly(ADP-ribosyl)ation with [32P]-NAD+. The class given is biochemical. The settings on record: compound 500 μM, PARP1 200 nM, 0.3 mM [32P]-NAD+, 2 min, 37 °C; mean ± SD; read-out: PARP1 % of residual activity (500 μM).
Text: as §1, §2, §3

T3 sequence (P09874 whole entry): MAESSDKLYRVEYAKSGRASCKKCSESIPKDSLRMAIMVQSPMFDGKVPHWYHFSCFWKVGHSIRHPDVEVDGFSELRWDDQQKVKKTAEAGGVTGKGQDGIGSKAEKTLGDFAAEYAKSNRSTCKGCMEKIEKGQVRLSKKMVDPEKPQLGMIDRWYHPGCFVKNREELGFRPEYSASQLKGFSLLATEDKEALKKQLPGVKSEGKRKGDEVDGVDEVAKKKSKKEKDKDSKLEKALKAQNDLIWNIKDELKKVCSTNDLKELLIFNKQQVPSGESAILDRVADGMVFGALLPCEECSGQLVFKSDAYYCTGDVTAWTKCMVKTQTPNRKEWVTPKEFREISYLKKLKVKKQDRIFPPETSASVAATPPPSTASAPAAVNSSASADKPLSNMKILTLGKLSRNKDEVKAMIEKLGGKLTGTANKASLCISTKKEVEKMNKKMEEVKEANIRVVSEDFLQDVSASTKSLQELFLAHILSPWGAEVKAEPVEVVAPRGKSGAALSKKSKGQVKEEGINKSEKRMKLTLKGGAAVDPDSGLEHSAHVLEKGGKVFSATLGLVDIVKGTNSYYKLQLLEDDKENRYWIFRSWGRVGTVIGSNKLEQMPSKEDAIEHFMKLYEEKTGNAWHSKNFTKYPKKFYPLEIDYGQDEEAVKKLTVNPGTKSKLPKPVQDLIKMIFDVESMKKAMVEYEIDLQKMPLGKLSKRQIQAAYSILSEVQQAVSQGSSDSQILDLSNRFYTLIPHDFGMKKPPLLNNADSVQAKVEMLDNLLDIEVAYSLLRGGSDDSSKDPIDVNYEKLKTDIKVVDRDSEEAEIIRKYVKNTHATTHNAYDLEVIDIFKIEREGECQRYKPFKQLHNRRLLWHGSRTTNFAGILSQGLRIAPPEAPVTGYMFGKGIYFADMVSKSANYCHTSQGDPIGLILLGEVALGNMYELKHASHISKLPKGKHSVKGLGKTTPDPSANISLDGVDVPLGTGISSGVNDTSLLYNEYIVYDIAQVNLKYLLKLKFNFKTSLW
T1 sequence (Q9NUW8 whole entry): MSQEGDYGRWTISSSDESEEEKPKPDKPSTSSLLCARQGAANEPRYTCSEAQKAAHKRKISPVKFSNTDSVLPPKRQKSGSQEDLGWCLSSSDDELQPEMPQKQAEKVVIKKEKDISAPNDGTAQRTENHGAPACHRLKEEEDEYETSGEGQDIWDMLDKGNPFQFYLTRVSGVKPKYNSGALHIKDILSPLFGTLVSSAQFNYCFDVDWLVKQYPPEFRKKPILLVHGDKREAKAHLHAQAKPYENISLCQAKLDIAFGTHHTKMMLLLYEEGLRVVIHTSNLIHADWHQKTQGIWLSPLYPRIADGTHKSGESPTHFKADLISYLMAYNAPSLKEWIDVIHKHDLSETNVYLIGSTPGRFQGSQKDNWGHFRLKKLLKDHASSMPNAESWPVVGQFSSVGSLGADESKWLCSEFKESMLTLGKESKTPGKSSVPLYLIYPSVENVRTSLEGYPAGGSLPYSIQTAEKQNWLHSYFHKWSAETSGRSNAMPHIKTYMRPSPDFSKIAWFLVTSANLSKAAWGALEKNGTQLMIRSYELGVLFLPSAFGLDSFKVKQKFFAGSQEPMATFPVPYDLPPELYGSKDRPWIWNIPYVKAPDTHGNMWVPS

Take `CCCn1cc(NC(C)=O)cc1-c1nc2ccc(-c3nc4ccc(N5CCN(C)CC5)cc4[nH]3)cc2[nH]1` [MB2Py(Ac)]: in test [1], the half-inhibitory concentration (IC50) came out at 5000 ± 2000 nM. Moreover, in test [2], the “PARP2 % of residual activity (500 μM)” value is ~ 100%. Further, the remaining activity at 500 µM in test [3] and in test [4] was approximately 100% in each case.

Consider `CN1CCN(c2ccc3nc(-c4ccc5nc(CN)[nH]c5c4)[nH]c3c2)CC1` [MB2], for which the IC50 in test [1] stood at 2000 ± 1000 nM. Besides, the “PARP2 % of residual activity (500 μM)” value in test [2] is reported as ~ 100%. Moreover, the remaining activity at 500 µM in test [3] and in test [4] was approximately 100% each time.

For the compound `CN1CCN(c2ccc3nc(-c4ccc5nc(-c6ccc7nc(CN)[nH]c7c6)[nH]c5c4)[nH]c3c2)CC1` [MB3], the half-inhibitory concentration (IC50) in test [1] turned out to be 700 ± 50 nM. In test [2], the “PARP2 % of residual activity (500 μM)” value was ~ 100%. Moreover, the figures for the remaining activity at 500 µM in test [3] and in test [4] were approximately 100% and 65 ± 15%, respectively.
